Series [1] deals with T1, heat treated T. brockii extract (Thermoanaerobacter brockii, UniProt P14941).
T1 construct: made in house; host or cells: T. brockii itself (native host; heat treated crude extract)
T1 sequence (P14941 1-352): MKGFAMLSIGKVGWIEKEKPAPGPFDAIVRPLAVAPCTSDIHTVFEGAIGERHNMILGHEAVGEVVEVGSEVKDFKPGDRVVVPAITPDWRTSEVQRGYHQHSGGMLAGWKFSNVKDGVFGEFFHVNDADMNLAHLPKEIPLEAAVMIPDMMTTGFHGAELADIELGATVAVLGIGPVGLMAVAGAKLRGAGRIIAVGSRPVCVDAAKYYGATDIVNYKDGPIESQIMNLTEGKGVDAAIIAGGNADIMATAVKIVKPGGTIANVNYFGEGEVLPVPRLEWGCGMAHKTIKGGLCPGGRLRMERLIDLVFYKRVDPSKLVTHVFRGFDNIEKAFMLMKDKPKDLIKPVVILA
The experiment in a line: Reduction of 2-pentanone by heat treated extract with NADPH regenerating system (gas chromatographic analysis). Format: biochemical, Thermoanaerobium brockii. The note with it: 3 g in 150 ml; 0.2 v/v isopropanol, 0.3 mM NADP; 40 hr. at 37° C. How it is done:
As illustrated in the following reaction diagram, an NADPH regenerating system can be initiated with isopropanol as the electron donor for the reduction of 2-pentanone. [drawing 1] A 150 ml solution was prepared containing 50 mM Tris-HCl (pH 7.8), 0.2 v/v isopropanol, 2 mM dithiothreitol, 0.3 mM NADP and 3 g 2-pentanone. After the solution was degassed with N2, sufficient heat treated T. brockii extract was added to yield an activity of 1 U/min./ml. The solution was incubated in a stoppered vessel for 40 hr. at 37° C. Gas chromatographic analysis indicated a 90% conversion of 2-pentanone to the corresponding alcohol. The mixture was extracted with diethyl ether and then fractionally distilled. The fractions were analyzed by conventional gas chromatographic and NMR (nuclear magnetic resonance) methods. The pure 2-pentanol fraction yielded a dextrorotatory optical rotation which corresponded to that of a highly optically enriched compound. The result in optical purity was dependent on incubation temperature and initial rate of isopropanol to 2-pentanone. Decreasing the temperature from 37° C. to 25° C. and the 2-pentanone concentration from 3 grams/150 ml to 0.6 grams/150 ml, increases the d/l bar ratio from 6/l to 9/l for the resulting 2-pentanol.

The target in series [2] is T2, NADP linked alcohol dehydrogenase (alcohol-aldehyde/ketone oxidoreductase) (Thermoanaerobacter brockii, UniProt P14941).
T2 construct: of the T. brockii enzyme preparation with various alcohols and carbonyl compounds; made in house; host or cells: T. brockii itself (native host; partially purified enzyme)
T2 sequence (P14941 1-352): T1 sequence (P14941 1-352)
Put plainly: Specific activity of partially purified NADP linked alcohol dehydrogenase with alcohols and carbonyl compounds (absorbance at 334 nm). The note with it: saturating substrate (0.2-0.5 M alcohol or ketone, 10 mM acetaldehyde); 0.5 mM NADP or 0.2 mM NADPH; 0.1 M Tris-Cl pH 7.8. In kind it is biochemical, Thermoanaerobium brockii.

Substrate in series [3]: CC=O
The description is as above. Format: biochemical, Thermoanaerobium brockii. As to conditions: other: substrate concentration giving half-maximal velocity; pH 7.8; 40.0 °C.

Substrate in series [4]: CCC(C)O
Put plainly: purified protein, by the assay type. As to conditions: other: substrate concentration giving half-maximal velocity; pH 7.8; 40.0 °C.

Usually Km stands for the substrate concentration at which the rate is half of its maximum.

Consider `CCCC(C)=O` [CH3 COCH2 CH2 CH3, 2-pentanone], for which the “Conversion to the corresponding alcohol” value in series [1] came out at 90%. The “Activity V/mg. at 60° C.” value in series [2] was 4.2 μ Mole/Min./Mg Protein.

B1: NADP linked alcohol dehydrogenase (alcohol-aldehyde/ketone oxidoreductase) (Thermoanaerobacter brockii) (protein)
chain: T1 sequence (P14941 1-352)
notes: of the T. brockii enzyme preparation with various alcohols and carbonyl compounds; made in house; host or cells: T. brockii itself (native host; partially purified enzyme)
For the molecule B1, the Km amounted to 150 µM in series [3] and 500 µM in series [4].

Source of the values: patent publication US4352885A, “Preparation of a novel NADP linked alcohol-aldehyde/ketone oxidoreductase from thermophilic anaerobic bacteria for analytical and commercial use” (Wisconsin Alumni Research Foundation, priority 1980, dated 1982).
